Assay results reported in US20230066011A1, “PYRROLOPYRIMIDINE DERIVATIVE, AND PHARMACEUTICAL COMPOSITION FOR PREVENTING OR TREATING PROTEIN KINASE-RELATED DISEASE COMPRISING SAME AS ACTIVE INGREDIENT” (VORONOI CO., LTD., priority 2019, published 2023).

Key:
LRRK2 (G2019S) = LRRK2 (G2019S) (Homo sapiens, UniProt Q5S007, G2019S); test: ScanMAX Kinase analysis panel, LRRK2 (G2019S); format: binding; parameters: purchased DiscoverX Corp. (ScanMAX Kinase analysis panel, service); conditions: 1 μM in DMSO; <35% considered inhibitory; read-out: percent control (% control), LRRK2 (G2019S)
Method: (§1) Specifically, the enzyme (kinase) selectivity of Example compounds 238, 361, 411, 157, 161, 228, and 158 selected from the Example compounds of the present invention was determined by commissioning DiscoverX Corp., and an experiment was performed using a ScanMAX™ Kinase analysis panel. In this case, a concentration of the drug with which the enzymes were treated was 1 μM in DMSO, and the percent control (% control) was defined in the same manner as in the following Expression 1.
(§2) (Example Compound−Positive Control)/(Negative Control−Positive Control)×100 [Expression 1]
(§3) wherein the positive control represents a compound having a percent control of 0%, and the negative control represents DMSO having a percent control of 100%. For the enzyme selectivity of the present invention, it was considered that the compound has an inhibitory activity on each of the enzymes when the percent control for the corresponding enzyme was <35% (i. e., less than 35%).

FAK = target: T1, FAK (Homo sapiens, UniProt Q05397); test: ScanMAX Kinase analysis panel, FAK; format: binding; conditions: 1 μM in DMSO; <35% considered inhibitory; read-out: percent control (% control), FAK
T1 construct: purchased DiscoverX Corp. (ScanMAX Kinase analysis panel, service)
Method: as §1, §2, §3

CLK3 = target: T2, CLK3 (Homo sapiens, UniProt P49761); test: ScanMAX Kinase analysis panel, CLK3; format: binding; conditions: 1 μM in DMSO; <35% considered inhibitory; read-out: percent control (% control), CLK3
T2 construct: purchased DiscoverX Corp. (ScanMAX Kinase analysis panel, service)
Method: as §1, §2, §3

TTK = target: T3, TTK (Homo sapiens, UniProt P33981); test: ScanMAX Kinase analysis panel, TTK; format: binding; parameters: purchased DiscoverX Corp. (commissioned ScanMAX panel service); conditions: 1 μM in DMSO; <35% considered inhibitory; read-out: percent control (% control), TTK
T3 sequence (P33981 1-857): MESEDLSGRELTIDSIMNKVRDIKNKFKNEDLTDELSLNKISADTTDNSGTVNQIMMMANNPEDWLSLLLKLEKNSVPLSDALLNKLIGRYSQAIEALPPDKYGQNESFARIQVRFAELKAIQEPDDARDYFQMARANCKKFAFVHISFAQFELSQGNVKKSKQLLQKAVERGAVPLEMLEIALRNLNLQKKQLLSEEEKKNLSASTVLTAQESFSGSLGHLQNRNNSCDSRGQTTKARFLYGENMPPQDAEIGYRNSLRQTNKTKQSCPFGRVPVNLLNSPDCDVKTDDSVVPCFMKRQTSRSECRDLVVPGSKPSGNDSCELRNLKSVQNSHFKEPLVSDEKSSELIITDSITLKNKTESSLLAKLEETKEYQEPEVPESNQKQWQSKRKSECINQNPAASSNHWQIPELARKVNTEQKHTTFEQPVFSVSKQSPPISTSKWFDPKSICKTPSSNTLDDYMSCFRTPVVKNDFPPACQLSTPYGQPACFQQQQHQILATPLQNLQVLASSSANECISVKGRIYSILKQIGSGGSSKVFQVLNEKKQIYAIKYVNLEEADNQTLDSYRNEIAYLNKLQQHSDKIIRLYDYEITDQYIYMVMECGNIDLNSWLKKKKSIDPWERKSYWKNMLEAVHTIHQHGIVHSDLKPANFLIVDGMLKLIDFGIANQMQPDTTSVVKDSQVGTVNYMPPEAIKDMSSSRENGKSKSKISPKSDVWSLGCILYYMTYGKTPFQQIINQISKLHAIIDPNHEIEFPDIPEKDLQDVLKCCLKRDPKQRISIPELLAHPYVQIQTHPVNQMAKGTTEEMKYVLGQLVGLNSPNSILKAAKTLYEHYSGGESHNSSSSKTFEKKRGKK
Method: as §1, §2, §3

PHKG1 = target: T4, PHKG1 (Homo sapiens, UniProt Q16816); test: ScanMAX Kinase analysis panel, PHKG1; format: binding; conditions: 1 μM in DMSO; <35% considered inhibitory; read-out: percent control (% control), PHKG1
T4 construct: purchased DiscoverX Corp. (ScanMAX Kinase analysis panel, service)
Method: as §1, §2, §3

DYRK1 = DYRK1 (Homo sapiens, UniProt Q13627); test: Kinase HotSpot service (Reaction Biology Corporation), DYRK1; format: biochemical; conditions: ATP 10 uM, read-out: DYRK1 IC50 (values indicated by *)
Method: The inhibitory activities of the compounds were measured at a 3-fold concentration gradient starting from a maximum compound concentration of […], and the values measured using the Kinase HotSpot service (Reaction Biology Corporation) are indicated by an asterisk (*).
All the experimental methods were performed as provided by the Kinase HotSpot Customer Protocol (http://www.reactionbiology.com//Kinase_Assay_Protocol).

T1 sequence (Q05397 whole entry): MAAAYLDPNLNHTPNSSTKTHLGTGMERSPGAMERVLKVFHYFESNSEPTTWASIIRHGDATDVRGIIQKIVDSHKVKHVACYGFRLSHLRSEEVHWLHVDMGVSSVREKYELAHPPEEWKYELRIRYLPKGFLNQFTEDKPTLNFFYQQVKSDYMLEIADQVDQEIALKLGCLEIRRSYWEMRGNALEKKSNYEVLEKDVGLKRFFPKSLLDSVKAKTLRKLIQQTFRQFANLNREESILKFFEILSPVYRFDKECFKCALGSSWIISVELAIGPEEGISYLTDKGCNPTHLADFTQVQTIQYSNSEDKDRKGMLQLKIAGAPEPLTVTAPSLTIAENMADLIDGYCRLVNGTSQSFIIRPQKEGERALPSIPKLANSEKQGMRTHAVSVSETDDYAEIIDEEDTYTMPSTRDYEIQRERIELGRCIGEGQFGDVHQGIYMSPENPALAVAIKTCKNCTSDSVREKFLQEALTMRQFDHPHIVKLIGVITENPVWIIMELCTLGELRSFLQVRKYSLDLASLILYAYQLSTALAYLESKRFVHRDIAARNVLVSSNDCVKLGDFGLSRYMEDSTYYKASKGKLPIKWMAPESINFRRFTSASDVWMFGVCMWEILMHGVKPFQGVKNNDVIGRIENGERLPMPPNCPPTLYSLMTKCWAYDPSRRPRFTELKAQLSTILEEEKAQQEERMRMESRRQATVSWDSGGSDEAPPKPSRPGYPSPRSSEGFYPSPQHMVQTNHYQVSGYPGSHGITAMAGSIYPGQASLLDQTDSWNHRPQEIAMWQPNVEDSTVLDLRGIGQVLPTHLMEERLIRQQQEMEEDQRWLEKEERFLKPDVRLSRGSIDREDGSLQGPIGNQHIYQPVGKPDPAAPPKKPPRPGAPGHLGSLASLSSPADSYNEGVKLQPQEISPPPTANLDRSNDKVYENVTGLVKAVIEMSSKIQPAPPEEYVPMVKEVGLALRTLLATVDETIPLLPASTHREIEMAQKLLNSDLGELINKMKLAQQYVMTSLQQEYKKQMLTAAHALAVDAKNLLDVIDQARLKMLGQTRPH
T2 sequence (P49761 whole entry): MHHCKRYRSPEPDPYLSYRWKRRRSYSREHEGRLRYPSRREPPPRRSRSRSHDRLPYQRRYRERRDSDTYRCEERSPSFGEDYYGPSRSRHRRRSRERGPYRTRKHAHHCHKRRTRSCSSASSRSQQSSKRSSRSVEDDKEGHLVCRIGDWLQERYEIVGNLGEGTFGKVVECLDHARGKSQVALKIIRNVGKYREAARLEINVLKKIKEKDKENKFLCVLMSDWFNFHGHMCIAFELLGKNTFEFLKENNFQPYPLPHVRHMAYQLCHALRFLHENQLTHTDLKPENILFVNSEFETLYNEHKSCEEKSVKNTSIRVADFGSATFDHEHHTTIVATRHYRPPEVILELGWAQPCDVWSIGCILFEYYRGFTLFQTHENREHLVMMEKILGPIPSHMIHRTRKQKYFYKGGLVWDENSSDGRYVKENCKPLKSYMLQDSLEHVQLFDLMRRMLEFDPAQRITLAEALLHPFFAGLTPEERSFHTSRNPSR
T4 sequence (Q16816 whole entry): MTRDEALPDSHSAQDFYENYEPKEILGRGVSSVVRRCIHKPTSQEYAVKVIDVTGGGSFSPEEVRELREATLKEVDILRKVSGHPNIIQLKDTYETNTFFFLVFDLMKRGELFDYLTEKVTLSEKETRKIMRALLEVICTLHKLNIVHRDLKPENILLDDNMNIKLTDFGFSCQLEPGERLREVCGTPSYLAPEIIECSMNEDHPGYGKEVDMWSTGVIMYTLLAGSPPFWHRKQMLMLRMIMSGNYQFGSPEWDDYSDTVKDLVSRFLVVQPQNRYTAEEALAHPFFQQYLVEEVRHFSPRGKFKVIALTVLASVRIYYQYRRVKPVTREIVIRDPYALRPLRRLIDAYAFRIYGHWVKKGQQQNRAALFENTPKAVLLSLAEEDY
LRRK2 (G2019S), sequence (Q5S007 whole entry G2019S): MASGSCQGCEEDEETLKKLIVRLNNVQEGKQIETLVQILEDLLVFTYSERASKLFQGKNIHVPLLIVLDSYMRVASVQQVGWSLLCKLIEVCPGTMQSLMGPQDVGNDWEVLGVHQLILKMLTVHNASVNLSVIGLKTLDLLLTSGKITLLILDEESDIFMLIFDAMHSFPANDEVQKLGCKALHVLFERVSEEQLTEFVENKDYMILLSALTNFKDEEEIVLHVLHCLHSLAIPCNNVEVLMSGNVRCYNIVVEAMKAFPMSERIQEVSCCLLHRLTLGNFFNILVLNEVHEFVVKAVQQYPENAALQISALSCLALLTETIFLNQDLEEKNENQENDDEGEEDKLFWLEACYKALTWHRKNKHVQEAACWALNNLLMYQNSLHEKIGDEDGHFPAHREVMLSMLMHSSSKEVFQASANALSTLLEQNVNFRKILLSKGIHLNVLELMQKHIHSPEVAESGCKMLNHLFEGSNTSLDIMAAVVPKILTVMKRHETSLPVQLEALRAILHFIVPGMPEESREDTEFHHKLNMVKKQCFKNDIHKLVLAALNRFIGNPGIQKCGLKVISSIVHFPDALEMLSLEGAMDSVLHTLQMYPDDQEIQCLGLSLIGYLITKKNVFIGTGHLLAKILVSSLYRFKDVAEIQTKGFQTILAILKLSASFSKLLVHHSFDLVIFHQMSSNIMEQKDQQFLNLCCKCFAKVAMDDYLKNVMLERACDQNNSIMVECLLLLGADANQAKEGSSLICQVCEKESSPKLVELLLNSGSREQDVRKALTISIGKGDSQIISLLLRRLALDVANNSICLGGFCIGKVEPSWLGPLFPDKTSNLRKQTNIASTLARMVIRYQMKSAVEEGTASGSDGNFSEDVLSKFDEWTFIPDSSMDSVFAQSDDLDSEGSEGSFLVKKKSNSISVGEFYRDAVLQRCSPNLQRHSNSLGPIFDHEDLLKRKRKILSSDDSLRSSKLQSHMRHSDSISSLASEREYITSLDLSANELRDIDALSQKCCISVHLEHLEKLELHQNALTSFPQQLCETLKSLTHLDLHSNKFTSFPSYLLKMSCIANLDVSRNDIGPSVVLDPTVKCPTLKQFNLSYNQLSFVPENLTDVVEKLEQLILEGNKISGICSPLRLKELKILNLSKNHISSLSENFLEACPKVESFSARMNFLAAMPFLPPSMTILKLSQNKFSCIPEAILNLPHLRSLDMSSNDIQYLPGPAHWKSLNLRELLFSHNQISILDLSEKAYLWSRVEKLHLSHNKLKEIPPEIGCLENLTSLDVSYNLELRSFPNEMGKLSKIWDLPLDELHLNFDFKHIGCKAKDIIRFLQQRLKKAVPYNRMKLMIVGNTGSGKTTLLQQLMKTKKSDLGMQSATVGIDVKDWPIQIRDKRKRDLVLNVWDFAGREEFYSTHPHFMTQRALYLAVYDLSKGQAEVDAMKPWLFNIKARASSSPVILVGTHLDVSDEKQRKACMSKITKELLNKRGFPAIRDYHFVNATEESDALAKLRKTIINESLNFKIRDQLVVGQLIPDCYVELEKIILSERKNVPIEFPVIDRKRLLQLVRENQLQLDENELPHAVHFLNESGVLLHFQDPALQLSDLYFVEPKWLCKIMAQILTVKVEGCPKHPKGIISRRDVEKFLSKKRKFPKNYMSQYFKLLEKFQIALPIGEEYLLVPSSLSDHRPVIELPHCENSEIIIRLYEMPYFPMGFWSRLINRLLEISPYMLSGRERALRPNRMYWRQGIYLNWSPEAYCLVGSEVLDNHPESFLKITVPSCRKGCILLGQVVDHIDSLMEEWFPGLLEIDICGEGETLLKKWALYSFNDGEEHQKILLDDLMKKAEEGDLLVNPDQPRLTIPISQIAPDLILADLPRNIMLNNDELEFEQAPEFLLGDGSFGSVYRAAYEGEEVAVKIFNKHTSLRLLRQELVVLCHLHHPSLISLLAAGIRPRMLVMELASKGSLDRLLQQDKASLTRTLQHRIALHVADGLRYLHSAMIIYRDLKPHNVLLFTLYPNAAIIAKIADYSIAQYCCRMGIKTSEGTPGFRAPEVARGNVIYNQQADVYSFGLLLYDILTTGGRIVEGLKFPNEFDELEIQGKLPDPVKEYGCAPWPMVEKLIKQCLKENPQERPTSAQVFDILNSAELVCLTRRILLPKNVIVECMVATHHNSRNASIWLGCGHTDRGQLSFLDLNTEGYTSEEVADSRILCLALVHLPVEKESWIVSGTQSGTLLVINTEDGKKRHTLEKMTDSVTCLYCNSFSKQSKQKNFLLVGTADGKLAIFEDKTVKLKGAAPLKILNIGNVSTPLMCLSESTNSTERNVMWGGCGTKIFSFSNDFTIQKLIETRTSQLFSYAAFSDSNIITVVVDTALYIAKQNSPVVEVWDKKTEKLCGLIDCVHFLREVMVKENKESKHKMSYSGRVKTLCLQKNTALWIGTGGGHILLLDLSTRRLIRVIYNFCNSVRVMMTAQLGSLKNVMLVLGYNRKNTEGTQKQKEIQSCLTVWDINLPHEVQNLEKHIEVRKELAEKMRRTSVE

| Structure (SMILES) | remaining binding at 1 µM (LRRK2 (G2019S)) [%] | remaining binding at 1 µM (FAK) [%] | remaining binding at 1 µM (CLK3) [%] | remaining binding at 1 µM (TTK) [%] | remaining binding at 1 µM (PHKG1) [%] | IC50 (DYRK1) [µM] |
| --- | --- | --- | --- | --- | --- | --- |
| CCNc1nc(Nc2ccc(S(=O)(=O)N3CCC(N4CCOCC4)CC3)cc2OC)nc2[nH]cc(C(F)(F)F)c12 [Example 158, N^4-ethyl-N^2-(2-methoxy-4-((4-morpholinopiperidin-1-yl)sulfonyl)phenyl)-5-(trifluoromethyl)-7H-pyrrolo[2,3-d]pyrimidine-2,4-diamine 2,2,2-trifluoroacetate] | 3.6 | 1.1 | 11 | 2.6 | 25 | < 0.1 |
| CCCNc1nc(Nc2ccc(S(=O)(=O)N3CCC(N4CCOCC4)CC3)cc2OC)nc2[nH]cc(C(F)(F)F)c12 [Example 161, N^2-(2-methoxy-4-((4-morpholinopiperidin-1-yl)sulfonyl)phenyl)-N^4-propyl-5-(trifluoromethyl)-7H-pyrrolo[2,3-d]pyrimidine-2,4-diamine] | 0 | 2.3 | 11 | 4.2 | 24 | < 0.1 |
| COc1cc(S(=O)(=O)N2CCC(N3CCOCC3)CC2)ccc1Nc1nc(C2CC2)c2c(C#N)c[nH]c2n1 [Example 224, 4-cyclopropyl-2-((2-methoxy-4-((4-morpholinopiperidin-1-yl)sulfonyl)phenyl)amino)-7H-pyrrolo[2,3-d]pyrimidine-5-carbonitrile] |  |  |  |  |  | < 0.1 |
| O=C(c1ccc(Nc2nc(C3CC3)c3c(C(F)(F)F)c[nH]c3n2)c2c1OCCO2)N1CCC(N2CCOCC2)CC1 [Example 228, (8-((4-cyclopropyl-5-(trifluoromethyl)-7H-pyrrolo[2,3-d]pyrimidin-2-yl)amino)-2,3-dihydrobenzo[b][1,4]dioxin-5-yl)(4-morpholinopiperidin-1-yl)methanone] | 1.1 | 24 | 25 | 2.9 | 30 | < 0.1 |
| CNc1nc(Nc2ccc(C(=O)N3CCC(N4CCOCC4)CC3)c3c2OCCO3)nc2[nH]cc(C(F)(F)F)c12 [Example 238, (8-((4-(methylamino)-5-(trifluoromethyl)-7H-pyrrolo[2,3-d]pyrimidin-2-yl)amino)-2,3-dihydrobenzo[b][1,4]dioxin-5-yl)(4-morpholinopiperidin-1-yl)methanone] | 0.05 | 7.8 | 7.8 | 2.9 | 3.6 |  |
| C=CCNc1nc(Nc2ccc(S(=O)(=O)N3CCC(N4CCOCC4)CC3)cc2OC)nc2[nH]cc(C#N)c12 [Example 361, 4-(allylamino)-2-((2-methoxy-4-((4-morpholino-piperidin-1-yl)sulfonyl)phenyl)amino)-7H-pyrrolo[2,3-d]pyrimidine-5-carbonitrile] | 0 | 0.75 | 21 | 2.4 | 9.7 |  |
| CNc1nc(Nc2ccc(P3(=O)CCN(C4CC4)CC3)cc2OC)nc2[nH]cc(C(F)(F)F)c12 [Example 411, 1-cyclopropyl-4-(3-methoxy-4-((4-(methylamino)-5-(trifluoromethyl)-7H-pyrrolo[2,3-d]pyrimidin-2-yl)amino)phenyl)-1,4-azaphosphinane-4-oxide] | 1.3 | 10 | 21 | 2.5 | 17 |  |

Now from value to compound:

| remaining binding at 1 µM (LRRK2 (G2019S)) [%] | remaining binding at 1 µM (FAK) [%] | remaining binding at 1 µM (CLK3) [%] | remaining binding at 1 µM (TTK) [%] | remaining binding at 1 µM (PHKG1) [%] | IC50 (DYRK1) [µM] | Structure (SMILES) |
| --- | --- | --- | --- | --- | --- | --- |
| 1.6 | 0.85 | 3.7 | 4 | 7.8 |  | CNc1nc(Nc2ccc(S(=O)(=O)N3CCC(N4CCOCC4)CC3)cc2OC)nc2[nH]cc(C(F)(F)F)c12 [Example 157, N^2-(2-methoxy-4-((4-morpholinopiperidin-1-yl)sulfonyl)phenyl)-N^4-methyl-5-(trifluoromethyl)-7H-pyrrolo[2,3-d]pyrimidine-2,4-diamine 2,2,2-trifluoroacetate] |
|  |  |  |  |  | 0.101 to 0.3 | COc1cc(S(=O)(=O)N2CCOCC2)ccc1Nc1nc(C2CC2)c2c(C#N)c[nH]c2n1 [Example 223, 4-cyclopropyl-2-((2-methoxy-4-(morpholinosulfonyl)phenyl)amino)-7H-pyrrolo[2,3-d]pyrimidine-5-carbonitrile] |
|  |  |  |  |  | < 0.1 | COc1cc(S(=O)(=O)N2CCC(N3CCOCC3)CC2)ccc1Nc1nc(C2CC2)c2c(C(F)(F)F)c[nH]c2n1 [Example 226] |
|  |  |  |  |  | < 0.1 | CCN1CCP(=O)(c2ccc(Nc3nc(C4CC4)c4c(C#N)c[nH]c4n3)c(OC)c2)CC1 [Example 261] |
|  |  |  |  |  | < 0.1 | COc1cc(S(=O)(=O)N2CCC(N3C[C@H]4C[C@@H]3CO4)CC2)ccc1Nc1nc(C2CC2)c2c(C(F)(F)F)c[nH]c2n1 [Example 473, N-(4-((4-((1R,4R)-2-oxa-5-azabicyclo[2.2.1]heptan-5-yl)piperidin-1-yl)sulfonyl)-2-methoxyphenyl)-4-cyclopropyl-5-(trifluoromethyl)-7H-pyrrolo[2,3-d]pyrimidin-2-amine] |
